In patent US8415357B2 (Canbas Co., Ltd., priority 2007, dated 2013):
pIC50: −log10 of the molar value.

test system: Jurkat cells; experiment: Adaptation to G2 cell cycle arrest (G1 increment) in X-ray pre-arrested Jurkat cells, flow cytometry; format: cell-based, human; conditions: Homo sapiens, Jurkat, 24 h, Table 1; concentration causing half-maximal increase of % cells in G1 phase (G1 increment); Jurkat pre-arrested by 10 Gy X-ray, 24 hours with compound
Procedure: Phenotype-based screening was used to measure the ability of compounds of the invention to cause adaptation to G2 cell cycle arrest in G2-arrested cells. Adaptation to G2 cell cycle arrest and re-entry into the cell cycle can result in death of the previously G2-arrested cell, or suppression (inhibition) of further proliferation of the previously G2-arrested cell. In a non-limiting embodiment, the ability to cause adaptation to G2 cell cycle arrest was measured by contacting cells in which G2 arrest had been induced by irradiation (e.g., gamma (γ) radiation or X-ray radiation), with compounds of the invention at various concentrations and, for each compound at each concentration, determining the percentage of cells that escaped G2 arrest and re-entered the cell cycle, by determining the percentage of cells in G1 phase. The IC50 value for each compound was calculated as the dosage (usually in μM) that caused half-maximal increase of the percentage of cells in G1 phase (the G1 increment) measured for that compound. Certain invention compounds were initially identified by phenotype-based screening of small molecule libraries for activity against G2-arrested cells as described above.
Jurkat cells (a human T cell lymphoma-derived cell line) were arrested at the G2 phase by X-ray irradiation at 10 Gy, and cultured for 24 hours in 10% fetal calf serum (FCS)/RPMI1640 at 37° C. with 5% CO2/air. (FCS was from Equitech-Bio, Kerrville, Tex., and RPMI1640 was from Sigma-Aldrich, St. Louis, Mo.) Test compounds were added to the medium at the indicated doses, and the cells were cultured under the conditions described above, for an additional 24 hours before harvesting.
Harvested cells were stained with Krishan's buffer (0.1% sodium citrate, 50 μg/ml propidium iodide, 20 μg/ml RNase A, 0.5% Nonidet P-40) and analyzed by flow cytometry (BD Biosciences, Franklin Lakes, N.J.) to identify the cell stage of each cell in the sample. Cells in G1 phase were identified by having […] (2N) DNA content.
The IC50 value for each compound was calculated as the dosage showing half maximal activity to induce the increase of the percentage of cells in G1 phase (the G1 increment). IC50 values were used to measure the activity of compounds and to determine structure-activity relationships.
Pre-arrested Jurkat cells were prepared as described in Example 1. Briefly, Jurkat cells were subjected to X-ray irradiation at a dose of 10 Gy, and cultured for 24 hours in 10% fetal calf serum (FCS)/RPMI1640 at 37° C. with 5% CO2/air, after which time cells were exposed to various concentrations of test compounds, and cultured under the conditions described above for an additional 24 hours before harvesting. Harvested cells were stained with Krishan's buffer (0.1% sodium citrate, 50 μg/ml propidium iodide, 20 μg/ml RNase A, 0.5% Nonidet P-40) and analyzed by flow cytometry (BD Biosciences, Franklin Lakes, N.J.) to identify the cell stage of each cell in the sample. Cells in G1 phase were identified by having […] (2N) DNA content.
The IC50 value for each compound was calculated as the dosage (concentration in μM) that caused half-maximal increase of the percentage of cells in G1 phase (the G1 increment) measured for that test compound. Table 1 below presents the structure, mass, 1H NMR values, and […] values for representative compounds.
The IC50 value for each compound was calculated as the dosage (concentration in μM) that caused half-maximal increase of the percentage of cells in G1 phase (the G1 increment) measured for that test compound. Table 2 below presents structures, IUPAC name, molecular formula, ID number (“SCID”), mass, 1H NMR values, and IC50 values for representative compounds. Table 3 presents structures, IUPAC name, molecular formula, ID number (“SCID”), mass, 1H NMR values, and IC50 values for further representative compounds.

Row | pIC50 | SMILES
1 | 4.22 | CC1=C(C)C(=O)N(C(C)c2ccc(Br)cc2)C1=O (stereo not drawn) [Compound S00543]
2 | 4.22 | CC1=C(C)C(=O)N(Cc2ccc(C(F)(F)F)cn2)C1=O [Compound S00110]
3 | 4.10 | O=C1C(Cl)=C(Cl)C(=O)N1Nc1cccc(C(F)(F)F)c1 [Compound S00406]

same assay, conditions: Homo sapiens, Jurkat, 24 h, Table 2; concentration causing half-maximal increase of % cells in G1 phase (G1 increment); Jurkat pre-arrested by 10 Gy X-ray, 24 hours with compound

Row | SMILES | pIC50
4 | COC(=O)CCC1=C(C)C(=O)N(Nc2cc(CN3CCN(C(=O)OC(C)(C)C)CC3)c3ccc(Br)cc3n2)C1=O [Compound S01865, Methyl 3-(1-{[4-({4-[(tert-butyl)oxycarbonyl]piperazinyl}methyl)-7-bromo (2-quinolyl)]amino}-4-methyl-2,5-dioxoazolin-3-yl)propanoate] | 6.51
5 | CC1=C(C)C(=O)N(Nc2ccc(C(F)(F)F)c(-c3ccc(F)c(Cl)c3)n2)C1=O [Compound S01313, 1-{[6-(3-chloro-4-fluorophenyl)-5-(trifluoromethyl)(2-pyridyl)]amino}-3,4-dimethylazoline-2,5-dione] | 6.52
6 | CC1=C(C)C(=O)N(Nc2nc(Cl)c(C(F)(F)F)cc2Br)C1=O [Compound S01981, 1-{[3-bromo-6-chloro-5-(trifluoromethyl)(2-pyridyl)]amino}-3,4-dimethylazoline-2,5-dione] | 7.11
7 | CC1=C(C)C(=O)N(Nc2cc(CN3CCN(C(=O)c4ccc(C)cc4C)CC3)c3ccc(Br)cc3n2)C1=O [Compound S01800, 1-{[4-({4-[(2,4-dimethylphenyl)carbonyl]piperazinyl}methyl)-7-bromo (2-quinolyl)]amino}-3,4-dimethylazoline-2,5-dione] | 6.20
8 | COCC1=C(C)C(=O)N(Nc2ccc(C(F)(F)F)c(Cl)n2)C1=O [Compound S01599, 1-{[6-chloro-5-(trifluoromethyl)(2-pyridyl)]amino}-3-(methoxymethyl)-4-methylazoline-2,5-dione] | 6.92

Next, values leading:

Row | pIC50 | SMILES
9 | 6.20 | CC1=C(C)C(=O)N(Nc2cc(CN3CCN(S(=O)(=O)c4ccccc4)CC3)c3ccc(Br)cc3n2)C1=O [Compound S01822, 1-[(7-bromo-4-{[4-(phenylsulfonyl)piperazinyl]methyl}(2-quinolyl))amino]-3,4-dimethylazoline-2,5-dione]
10 | 6.52 | CC1=C(C)C(=O)N(Nc2ccc(C(F)(F)F)c(CC(C)C)n2)C1=O [Compound S01457, 3,4-dimethyl-1-{[6-(2-methylpropyl)-5-(trifluoromethyl)(2-pyridyl)]amino}azoline-2,5-dione]
11 | 7.11 | COc1ccccc1C(=O)N1CCN(Cc2cc(NN3C(=O)C(C)=C(C)C3=O)nc3cc(Br)ccc23)CC1 [Compound S01879, 1-{[7-bromo-4-({4-[(2-methoxyphenyl)carbonyl]piperazinyl}methyl) (2-quinolyl)]amino}-3,4-dimethylazoline-2,5-dione]
12 | 6.20 | CC1=C(C)C(=O)N(Nc2ccc(C(F)(F)F)c(-c3ccc(Cl)cc3)n2)C1=O [Compound S01371, 1-{[6-(4-chlorophenyl)-5-(trifluoromethyl)(2-pyridyl)]amino}-3,4-dimethylazoline-2,5-dione]
13 | 6.20 | COc1ccc(C(=O)N2CCN(Cc3cc(NN4C(=O)C(C)=C(C)C4=O)nc4cc(Br)ccc34)CC2)cc1 [Compound S01801, 1-{[7-bromo-4-({4-[(4-methoxyphenyl)carbonyl]piperazinyl}methyl) (2-quinolyl)]amino}-3,4-dimethylazoline-2,5-dione]

same assay, conditions: Homo sapiens, Jurkat, 24 h, Table 3; concentration causing half-maximal increase of % cells in G1 phase (G1 increment); Jurkat pre-arrested by 10 Gy X-ray, 24 hours with compound

Row | pIC50 | SMILES
14 | > 7.72 | CC1=C(COCC(C)(C)C)C(=O)N(Nc2ccc(C(F)(F)F)c(Cl)n2)C1=O [Compound S03962, 3-[(2,2-dimethylpropoxy)methyl]-1-{[6-chloro-5-(trifluoromethyl) (2-pyridyl)]amino}-4-methylazoline-2,5-dione]
15 | 7.22 | CCC(O)CCC1=C(C)C(=O)N(Nc2ccc(C(F)(F)F)c(Cl)n2)C1=O (stereo not drawn) [Compound S03745, 1-{[6-chloro-5-(trifluoromethyl)(2-pyridyl)]amino}-4-(3-hydroxypentyl)-3-methylazoline-2,5-dione]
